Assay results as given in US11993578B2, “Pyrazole-3-carboxylic acid amide derivative and pest control agent” (KUMIAI CHEMICAL INDUSTRY CO., LTD., priority 2017, dated 2024).

system: Aphis gossypii; test: Aphis gossypii killing test (Test Example 3); assay type: in vivo; conditions: 72 h, 500 ppm active ingredient, cucumber nursery plant with nymphs dipped, after 3 days, 25° C., read-out: percentage of dead insects
Experimental: [formula] The water-dispersible powder prepared in accordance with Formulation example 2 was diluted in water so that the concentration of the active ingredient was 500 ppm. A nursery plant of cucumber preliminarily inoculated with nymphs of Aphis gossypii was dipped in this liquid agent, and air-dried. The nursery plant of cucumber after the treatment was placed in a thermostatic chamber at 25° C., and the number of live insects was counted after 3 days, and the percentage of dead insects was determined by the calculation formula of numerical formula 1. The test was conducted singly.

Row | SMILES | pest or weed control at 500 ppm
1 | NC(=O)c1nn(-c2cccnc2)cc1O [Compound A-0001, 4-hydroxy-1-(pyridine-3-yl)-1H-pyrazole-3-carboxamide] | ≥ 50%
2 | CC(C)(C)CCOc1cn(-c2cccnc2)nc1C(N)=O [Compound A-0017, 4-(3,3-dimethylbutoxy)-1-(pyridine-3-yl)-1H-pyrazole-3-carboxamide] | ≥ 50%
3 | NC(=O)c1nn(-c2cccnc2)cc1OCC(F)(F)C(F)(F)F [Compound A-0044, 4-(2,2,3,3,3-pentafluoropropoxy)-1-(pyridine-3-yl)-1H-pyrazole-3-carboxamide] | ≥ 50%
4 | NC(=O)c1nn(-c2cccnc2)cc1OC(F)(F)C(F)OC(F)(F)F (centres unmarked) [Compound A-0071, 1-(pyridine-3-yl)-4-[1,1,2-trifluoro-2-(trifluoromethoxy)ethoxy]-1H-pyrazole-3-carboxamide] | ≥ 50%
5 | NC(=O)c1nn(-c2cccnc2)cc1OCc1ccccc1 [Compound A-0240, 4-benzyloxy-1-(pyridine-3-yl)-1H-pyrazole-3-carboxamide] | ≥ 50%
6 | CC(C)C(=O)NC(=O)c1nn(-c2cccnc2)cc1OC(F)(F)C(F)OC(F)(F)F (centres unmarked) [Compound A-2403, N-isobutyryl-1-(pyridine-3-yl)-4-[1,1,2-trifluoro-2-(trifluoromethoxy)ethoxy]-1H-pyrazole-3-carboxamide] | ≥ 50%
7 | NC(=S)c1nn(-c2cccnc2)cc1OC(F)(F)C(F)OC(F)(F)F (centres unmarked) [Compound A-5436, 1-(pyridine-3-yl)-4-[1,1,2-trifluoro-2-(trifluoromethoxy)ethoxy]-1H-pyrazole-3-carbothioamide] | ≥ 50%
8 | NC(=O)c1nn(-c2ccc[n+]([O-])c2)cc1OC(F)(F)C(F)OC(F)(F)F (centres unmarked) [Compound A-5510, 3-(3-carbamoyl-4-[1,1,2-trifluoro-2-(trifluoromethoxy)ethoxy]-1H-pyrazole-1-yl)pyridine-1-oxide] | ≥ 50%
